pIC50: −log10 of the molar value.
What follows are compounds tested against Steroidogenic factor 1 (Homo sapiens, UniProt Q13285) (assay: SF-1 inhibitors in Gal4 reporter counter-screen, dose response, counter-screen for RORA inhibitor project, cell-based, CHO-K1, Gal4-SF-1 LBD, luciferase luminescence (AID 611)). Settings: not given.
Steroidogenic factor 1, sequence (Q13285 whole entry, the tested form may be a part): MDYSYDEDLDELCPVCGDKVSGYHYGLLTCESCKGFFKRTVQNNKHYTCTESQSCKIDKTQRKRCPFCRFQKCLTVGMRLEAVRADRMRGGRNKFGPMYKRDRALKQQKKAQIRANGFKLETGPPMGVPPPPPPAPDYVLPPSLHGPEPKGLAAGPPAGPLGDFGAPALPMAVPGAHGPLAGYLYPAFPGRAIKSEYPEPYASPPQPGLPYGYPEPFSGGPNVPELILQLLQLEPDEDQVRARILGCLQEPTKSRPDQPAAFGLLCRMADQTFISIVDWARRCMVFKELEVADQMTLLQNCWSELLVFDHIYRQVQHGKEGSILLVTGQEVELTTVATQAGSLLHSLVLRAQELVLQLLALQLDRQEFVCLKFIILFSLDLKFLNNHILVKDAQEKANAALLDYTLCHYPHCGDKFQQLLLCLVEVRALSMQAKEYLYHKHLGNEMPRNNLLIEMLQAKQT
`Cc1oc2nc(SCC(=O)NCc3cccnc3)nc(N)c2c1C` [2-(4-amino-5,6-dimethylfuro[2,3-d]pyrimidin-2-yl)sulfanyl-N-(pyridin-3-ylmethyl)acetamide] showed a pIC50 of less than 4.00. `COc1ccc(-c2cc3nc4n(c(=O)c3s2)CCC4)cc1` [2-(4-methoxyphenyl)-6,7-dihydropyrrolo[1,2-a]thieno[3,2-d]pyrimidin-9(5H)-one] gave a pIC50 of less than 5.44. `COc1ccc(-c2cc3nc4n(c(=O)c3s2)CCOC4)cc1` [2-(4-methoxyphenyl)-7,8-dihydro-5H-thieno[1,2]pyrimido[4,5-a][1,4]oxazin-10-one] gave a pIC50 of 5.11. `CC1CCN(c2nc3ccc(C(=O)O)cc3s2)CC1` [2-(4-methyl-1-piperidinyl)-1,3-benzothiazole-6-carboxylic acid] gave a pIC50 of 6.48. `c1c2c(cc3sc(N4CCOCC4)nc13)OCCO2` [2-(4-morpholinyl)-6,7-dihydro-[1,4]dioxino[2,3-f][1,3]benzothiazole] gave a pIC50 of less than 5.44. `CCOc1ccc(-c2nc(CSCC(=O)NCc3ccco3)c(C)o2)cc1` [2-({[2-(4-ethoxyphenyl)-5-methyl-1,3-oxazol-4-yl]methyl}thio)-N-(2-furylmethyl)acetamide] was tested, and the pIC50 was 6.59. For `CCOc1ccc(-c2nc(CSCC(=O)NCCN3CCOCC3)c(C)o2)cc1` [2-({[2-(4-ethoxyphenyl)-5-methyl-1,3-oxazol-4-yl]methyl}thio)-N-(2-morpholin-4-ylethyl)acetamide], the pIC50 was 5.40. Work on `CCc1ccc(-c2nc(CSCC(=O)NCCCN3CCCC3=O)c(C)o2)cc1` [2-({[2-(4-ethylphenyl)-5-methyl-1,3-oxazol-4-yl]methyl}thio)-N-[3-(2-oxopyrrolidin-1-yl)propyl]acetamide] yielded a pIC50 of 5.25. Work on `COc1cc(CC(NC(C)=O)C(=O)NC2CCN(c3nc(C)cc(C)c3C#N)CC2)cc(OC)c1` (centres undefined) [2-Acetylamino-N-(3'-cyano-4',6'-dimethyl-3,4,5,6-tetrahydro-2H-[1,2']bipyridinyl-4-yl)-3-(3,5-dimethoxy-phenyl)-propionamide] yielded a pIC50 of less than 4.00. Work on `Nc1nc(Cl)nc2c1ncn2[C@H]1C[C@H](O)[C@@H](CO)O1` [2-CHLORO-2'-DEOXYADENOSINE] yielded a pIC50 of 6.18. For `CN(C)c1nc(N)nc(CSc2nnnn2-c2cccc3ccccc23)n1` [2-N,2-N-dimethyl-6-[(1-naphthalen-1-yltetrazol-5-yl)sulfanylmethyl]-1,3,5-triazine-2,4-diamine], the pIC50 was less than 4.00. Work on `CCCCNc1cc(C)nc(NCc2ccccc2)n1` [2-N-benzyl-4-N-butyl-6-methylpyrimidine-2,4-diamine] yielded a pIC50 of 5.03. `Cc1cc(C(=O)CN2C(=O)c3ccccc3S2(=O)=O)c(C)n1CC1CCCO1` (centres undefined) [2-[2-[2,5-dimethyl-1-(2-oxolanylmethyl)-3-pyrrolyl]-2-oxoethyl]-1,1-dioxo-1,2-benzothiazol-3-one] gave a pIC50 of 5.25. With `CN1CCN(C(=O)COc2ccc(-c3nc4ccccc4s3)cc2)CC1` [2-[4-(1,3-benzothiazol-2-yl)phenoxy]-1-(4-methyl-1-piperazinyl)ethanone] the pIC50 was 5.28. In the case of `CCOC(=O)CS(=O)(=O)c1nc(-c2ccc(F)cc2)cc(C(F)(F)F)n1` [2-[4-(4-fluorophenyl)-6-(trifluoromethyl)pyrimidin-2-yl]sulfonylacetic acid ethyl ester], the pIC50 was 5.05. Work on `Cc1cc(N2CCN(c3nc4ccccc4s3)CC2)n2ncnc2n1` [2-[4-(5-methyl-[1,2,4]triazolo[1,5-a]pyrimidin-7-yl)-1-piperazinyl]-1,3-benzothiazole] yielded a pIC50 of 5.04. Work on `CCOC(=O)CS(=O)(=O)c1nc(-c2ccccc2)cc(C(F)(F)F)n1` [2-[4-phenyl-6-(trifluoromethyl)pyrimidin-2-yl]sulfonylacetic acid ethyl ester] yielded a pIC50 of 5.01.

Same assay, conditions: inactive by the depositor's call
For `O=C(CSc1nnc(Cn2nnc3ccccc32)o1)N(Cc1ccc(F)cc1)c1ccccc1` [2-(5-Benzotriazol-1-ylmethyl-[1,3,4]oxadiazol-2-ylsulfanyl)-N-(4-fluoro-benzyl)-N-phenyl-acetamide], the pIC50 was 4.96. With `Nc1ccc2oc(-c3cc(Br)ccc3Cl)nc2c1` [2-(5-bromanyl-2-chloranyl-phenyl)-1,3-benzoxazol-5-amine] the pIC50 was 4.18.

Reference: BindingDB's records for doi:10.7270/Q2PR7TCX (The Scripps Research Institute Molecular Screening Center, 2007)
